In patent US11261179B2, “Small molecules” (University of Dundee, priority 2017, dated 2022):
“And” between values parts separate entries of the source, which are not always exact repeats. Identical values can stand only once. “Also recorded” adds a separate entry of the source.

How the values were obtained:
[1] = target: pVHL19 (VCB complex: VHL with Elongin B and Elongin C) (Homo sapiens, UniProt P40337); assay: ITC titration against VCB, short VHL isoform; type: binding; conditions: ITC; for Kd / ΔG / ΔH / α (cooperativity/avidity) / −TΔS: pVHL19; for n (stoichiometry): pVHL19, 25° C.
pVHL19 (VCB complex: VHL with Elongin B and Elongin C), sequence (P40337 54-213): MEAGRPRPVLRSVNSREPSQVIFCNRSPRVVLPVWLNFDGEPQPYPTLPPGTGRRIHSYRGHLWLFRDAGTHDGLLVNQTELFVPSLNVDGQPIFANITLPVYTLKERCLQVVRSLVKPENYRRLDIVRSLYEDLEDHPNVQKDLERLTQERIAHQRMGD
pVHL19 (VCB complex: VHL with Elongin B and Elongin C), sequence (Q15370 1-104 partner limits assumed): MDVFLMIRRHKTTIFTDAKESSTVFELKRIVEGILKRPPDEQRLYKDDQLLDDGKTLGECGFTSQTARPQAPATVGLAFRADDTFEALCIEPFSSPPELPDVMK
pVHL19 (VCB complex: VHL with Elongin B and Elongin C), sequence (Q15369 17-112 partner limits assumed): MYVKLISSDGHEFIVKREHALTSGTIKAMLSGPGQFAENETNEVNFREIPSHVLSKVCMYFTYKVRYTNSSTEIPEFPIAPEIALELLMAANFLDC
Experimental: Titrations were performed on an ITC200 micro-calorimeter (GE Healthcare). […] The final DMSO concentration was 0.15% v/v. VBC protein experiments were carried out in a buffer containing 20 mM Bis-tris propane, 150 mM NaCl, 1 mM TCEP, 0.15% v/v DMSO, pH 7.4. The titrations consisted of 19 injections of 2 μL compounds solution (150 μM, in the syringe) at a rate of 2 s/μL at 120 s time intervals into the VCB protein solution (20 μM, in the cell). An initial injection of compound solution (0.4 μL) was made and discarded during data analysis. All experiments were performed at 25° C., whilst stirring the syringe at 600 rpm. The data were fitted to a single binding site model to obtain the stoichiometry n, the dissociation constant Kd and the enthalpy of binding ΔH using the Microcal LLC ITC200 Origin software provided by the manufacturer.

[2] = target: T1, pVHL30 (Homo sapiens, UniProt P40337); assay: Western blot of VHL levels in U2OS cells; type: cell-based; conditions: for profile of cellular activity: 10 h, 1 nM-100 μM; for cellular efficacy at longer time points / time of treatment to complete degradation of pVHL30: time course
T1 construct: endogenous in cells; host or cells: U2OS
T1 sequence (P40337 whole entry): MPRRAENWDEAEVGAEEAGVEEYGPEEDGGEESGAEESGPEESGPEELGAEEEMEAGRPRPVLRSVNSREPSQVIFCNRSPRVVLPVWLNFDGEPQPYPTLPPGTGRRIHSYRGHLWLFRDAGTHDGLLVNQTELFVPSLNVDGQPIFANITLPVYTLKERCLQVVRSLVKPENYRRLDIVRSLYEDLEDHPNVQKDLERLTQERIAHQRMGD
Experimental: (§1) For single time point treatment experiments, cells were transferred in 6-well plates with 5×10^5 cells per well in 2 ml media in order to achieve 80% confluence the following day. Stock concentrations of compounds were prepared by solubilizing the powder in 100% v/v DMSO to the final desired stock concentration.
(§2) On the day of treatment, all compound samples were prepared as 100-fold concentrated compound solution using DMEM just before treatment. The experiment samples (20 μL) were added to the 6 well plate containing 2 ml of media. The final DMSO concentration was 0.1% v/v. Cells were incubated at 37° C. and 5% CO2 for the desired time before harvesting.
(§3) For time dependent treatment, cells were transferred in 6-well plates with 3×10^5 cells per well in 2 ml media. Samples were prepared as detailed above or the single time point experiments. Treatment was conducted at given time points prior to harvest.
(§4) Cells were lysed in lysis buffer (20 mM Tris pH 8, 150 mM NaCl, 1% Triton x100) and a protease inhibitor cocktail (Roche) per 10 ml buffer. For protein extracts, the dishes were placed on ice. The media was aspirated and the tissue layer washed twice with ice-cold phosphate buffer saline (PBS). Lysis buffer (120 μl) was added and the cells detached from the surface with a cell scraper. After removal of the insoluble fraction by centrifugation, the protein concentration of the supernatant was determined by Pierce™ Coomassie (Bradford) Protein Assay Kit. Protein extracts were fractionated by SDS-PAGE on 4-12% Tris-Acetate NuPage® Novex® (Life Technologies) polyacrylamide gels and transferred to a nitrocellulose membrane using wet transfer. The membrane was then blocked with 5% w/v Bovine serum albumin (BSA) in Tris-buffered saline (TBS) with 0.1% w/v Tween-20. For detecting proteins the following primary antibodies in the given concentrations were used: anti-β-Actin (Cell Signaling Technology, 4970S, 13E5) 1:2000, anti-VHL (Cell Signaling Technology, #68547) 1:1000, anti-Hif-1α (BD Biosciences, 610959, clone 54) 1:1000, anti-hydroxy-HIF-1α (Hyp564) (Cell Signaling Techonology; #3434) 1:1000, anti-PHD2 (Bethyl Laboratories; A300-322A) 1:1000, anti-PHD3 (Bethyl Laboratories; A300-327A) 1:1000, anti-CRBN (Proteintech; 11435-1-AP) 1:1000.
(§5) Following incubation with a horseradish peroxidase-conjugated secondary antibody (Cell Signaling Technology), the signal was developed using enhanced chemiluminescence (ECL) Western Blotting Detection Kit (Amersham) on Amersham Hyperfilm ECL film (Amersham).
(§6) Band quantification was performed using ImageJ software and reported as relative amount as ratio of the each protein band relative to the lane's loading control. The values obtained were then normalized to 0.1% DMSO vehicle control.

[3] = target: T2, VCB (biotinylated VCB and His-VCB) (Homo sapiens, UniProt P40337); assay: AlphaLISA proximity assay of ternary complex formation; type: binding; conditions: VCB 20 nM each, 0.5 to 200 nM Homo-PROTAC
T2 construct: His tag (printed 'Hiss-VCB'); biotin (chemical labelling with NHS-PEG4-biotin); on the other VCB population
T2 sequence (P40337 54-213 limits assumed): as the sequence (P40337 54-213) above
T2 sequence (Q15370 1-104 partner limits assumed): as the sequence (Q15370 1-104 partner limits assumed) above
T2 sequence (Q15369 17-112 partner limits assumed): as the sequence (Q15369 17-112 partner limits assumed) above
Experimental: The VCB complex was mixed with EZ-link NHS-PEG4-biotin (Thermo Scientific) in a 1:1 molar ratio and incubated at room temperature for 1 h. The reaction was quenched using 1 M Tris-HCl, pH 7.5, and unreacted NHS-biotin was removed with a PD-10 MiniTrap desalting column (GE Healthcare) equilibrated with 20 mM HEPES, pH 7.5, 150 mM NaCl and 1 mM DTT.
All assays were performed at room temperature in 384-well plates with a final assay volume of 25 μL per well; plates were sealed with transparent film between addition of reagents. All reagents were prepared as 5× stocks diluted in 50 mM HEPES, pH 7.5, 100 mM NaCl, 0.1% (w/v) bovine serum albumin and 0.02% (w/v) 3-[(cholamidopropyl)dimethylammonio]-1-propanesulfonate (CHAPS). Biotinylated VCB (20 nM final) and Hiss-VCB (20 nM final) were incubated with a range of Homo-PROTAC concentrations (0.5 to 200 nM; three-in-five serial dilution) for 1 h. Anti-His acceptor beads (PerkinElmer, 10 μg/mL final) were added and plates were incubated for another hour. Streptavidin-coated donor beads (PerkinElmer, 10 μg/mL final) were added and plates were incubated for a final 1 h. Plates were read on a PHERAstar FS (BMG Labtech) using an optic module with an excitation wavelength of 680 nm and emission wavelength of 615 nm. Intensity values were plotted against PROTAC concentration on a logo scale.

[4] = system: HIF-1α / hydroxylated HIF-1α (Hdy-HIF-1α); assay: Western blot of HIF-1α and Hdy-HIF-1α levels in HeLa cells; type: cell-based, Human; conditions: HeLa, 1 μM, 10 h
Experimental: as §1, §2, §3, §4, §5, §6

[5] = target: T3, pVHL30 (long isoform of VHL) (Homo sapiens, UniProt P40337); assay: Western blot of VHL levels in HeLa cells; type: cell-based
T3 construct: endogenous in cells; host or cells: HeLa
T3 sequence (P40337 whole entry, canonical isoform): as the sequence (P40337 whole entry) above
Experimental: as §1, §2, §3
Cells were transferred in 6-well plates with 5×10^5 cells per well in 2 ml media in order to achieve 80% confluence the day after. At t=0, MLN4924 was added into the desired wells at 3 μM final concentration and 0.1% v/v of DMSO. DMSO (0.1% v/v final conc.) was added to the remaining wells in order to match identical conc. of vehicle in all wells. At t=3 h, MG 132 was added into the desired wells at 50 μM final conc. and 0.1% v/v of DMSO. DMSO (0.1% v/v final conc.) was added to the remaining wells in order to achieve the same conc. of vehicle in all the wells. […] DMSO (0.1% v/v final conc.) was added to the remaining wells in order to obtain the same conc. of vehicle in all the wells. The total final concentration of DMSO was therefore 0.3% v/v. Plates were incubated for 4 h at 37° C. and 5% CO2 before harvesting.
Cells were transferred in 6-well plates with 5×10^5 cells per well in 2 ml media in order to achieve 80% confluence the day after. […] Plates were incubated for the desired time at 37° C. and 5% CO2 before harvesting.
For this experiments, cells were transferred in 6-well plates with 5×10^5 cells per well in 2 ml media in order to achieve 80% confluence the day after. […] Plates were incubated for the desired time at 37° C. and 5% CO2 before harvesting.
as §4, §5
Band quantification was performed using ImageJ software and reported as relative amount as ratio of the each protein band relative to the lane's loading control. […]

[6] = target: VCB complex (Homo sapiens, UniProt P40337); assay: Size exclusion chromatography of VCB complex formation; type: binding; conditions: SEC, VCB 50 μM, compound 30 μM
VCB complex, sequence (P40337 54-213 limits assumed): as the sequence (P40337 54-213) above
VCB complex, sequence (Q15370 1-104 partner limits assumed): as the sequence (Q15370 1-104 partner limits assumed) above
VCB complex, sequence (Q15369 17-112 partner limits assumed): as the sequence (Q15369 17-112 partner limits assumed) above
Experimental: SEC experiments were carried out in a AKTA pure system (GE Healthcare) at room temperature. The oligomeric state of the VCB complex in solution was analyzed by gel filtration in a buffer containing 20 mM Bis-Tris (pH 7), 150 mM NaCl and 1 mM 1,4-dithiothreitol (DTT) using a Superdex 200 Increase 10/300 GL column (GE Healthcare) calibrated with globular proteins of known molecular weight (GE Healthcare, 28-4038-41/42). […] Sample volume for each injection was 200 μL, and the flow rate was 0.5 mL/min. Peak elution was monitored using ultraviolet absorbance at 280 nm.

Row | SMILES | Kd [1] [nM] | ΔG [1] [kcal/mol] | ΔH [1] [kcal/mol] | α (cooperativity/avidity) [1] | −TΔS [1] [kcal/mol] | n (stoichiometry) [1] | profile of cellular activity [2] | cellular efficacy at longer time points [2] | time of treatment to complete degradation of pVHL30 [2] [h] | AlphaLISA intensity signal / complex formation [3] | HIF-1α level [4] | protein levels of Hdy-HIF-1α [4] | depletion/degradation of VHL (pVHL30) ([5]; 1 μM, 10 h) | shift of VCB peak / ternary complex formation [6] | degradation of pVHL over time ([5]; time course, also longer time points)
1 | Cc1ncsc1-c1ccc(CNC(=O)[C@@H]2C[C@@H](O)CN2C(=O)[C@@H](NC(=O)COCCOCCOCCOCCOCC(=O)N[C@H](C(=O)N2C[C@H](O)C[C@H]2C(=O)NCc2ccc(-c3scnc3C)cc2)C(C)(C)C)C(C)(C)C)cc1 [CM10, N^1,N^17-bis((S)-1-((2S,4R)-4-hydroxy-2-((4-(4-methylthiazol-5-yl)benzyl)carbamoyl)pyrrolidin-1-yl)-3,3-dimethyl-1-oxobutan-2-yl)-3,6,9,12,15-pentaoxaheptadecanediamide] | 32 ± 5 | -10.2 ± 0.1 | -9.4 ± 0.1 | 6 | -0.8 ± 0.2 | 0.7 and 0.73 ± 0.01 | consistent profile of cellular activity | retained their efficacy | 2 | negligible levels of complex formation | slight increase | detectable albeit low increase | total knockdown; also recorded: complete depletion | formation of a ternary complex eluting at identical retention volume | –
2 | Cc1ncsc1-c1ccc(CNC(=O)[C@@H]2C[C@@H](O)CN2C(=O)[C@@H](NC(=O)COCCOCCOCCOCC(=O)N[C@H](C(=O)N2C[C@H](O)C[C@H]2C(=O)NCc2ccc(-c3scnc3C)cc2)C(C)(C)C)C(C)(C)C)cc1 [CM09, N^1,N^14-bis((S)-1-((2S,4R)-4-hydroxy-2-((4-(4-methylthiazol-5-yl)benzyl)carbamoyl)pyrrolidin-1-yl)-3,3-dimethyl-1-oxobutan-2-yl)-3,6,9,12-tetraoxatetradecanediamide] | 41 ± 15 | -10.3 ± 0.2 | -6.9 ± 0.3 | 4 | -3.5 ± 0.5 | 0.98 ± 0.09 | consistent profile of cellular activity | lost its cellular efficacy after 36 h | 2 | negligible levels of complex formation | slight increase | – | – | formation of a ternary complex eluting at identical retention volume | Incomplete degradation
